# Experimental data from US10428045B2, “Benzazepine compounds, conjugates, and uses thereof” (Silverback Therapeutics, Inc., priority 2017, dated 2019).
# Where a name gives a salt, the structure may show the parent alone.
# System: Human peripheral blood mononuclear cells (PBMC)
# Assay: PBMC screening assay, TNF-α in supernatant
# Type: cell-based
# Details: TNF-α in supernatant of human PBMC, 24 hours, ELISA or HTRF
# Experimental: Human peripheral blood mononuclear cells (PBMC) were obtained from BenTek, frozen at 25×10^6 cell/mL in 10% DMSO (Sigma) prepared in fetal bovine serum (Gibco) and stored in liquid nitrogen. For culture PBMC were thawed quickly in a 37° C. water bath and diluted into pre-warmed RPMI 1640 (Lonza) supplemented with 10% fetal bovine serum, 2 mM glutamine, 50 μg/mL penicillin, 50 U/mL streptomycin (all from Gibco) and centrifuged for 5 minutes at 500×g. PBMC were suspended into the growth media described above and cultured at a concentration of 1×10^6 cells per mL at 37° C. in a 5% CO2 incubator.
# PBMC were thawed, suspended at a concentration of 1×10^6 cell/mL in growth media and 200 μL was aliquoted into each well of a 96-well plate for a total of 0.2×10^6 cells per well. PBMC were incubated for 16-18 hours at 37° C. in a 5% CO2 humidified incubator. The following day PBMC plates were centrifuged at 500×g for 5 minutes and the growth media was removed. 150 μL of twelve concentrations ranging from 1000 to 0.000238 nM of small molecules prepared in growth media were added to PBMC in duplicate and incubated for 24 hours at 37° C. in a 5% CO2 incubator. Prior to supernatant harvest, cells were spun at 500×g for 5 minutes to remove cell debris. TNF-α activity was assessed in the supernatant by ELISA (eBioscience) or HTRF (CisBio) per the manufacturer's instructions. Optical density at 450 nm and 570 nm (ELISA) or luminescence (HTRF) was analyzed using an Envision (Perkin Elmer) plate reader, as shown in Table 5.
row,SMILES,EC50 [nM]
1,"CCCN(CCC)C(=O)C1=Cc2ccc(S(=O)(=O)Nc3cccnc3)cc2N=C(N)C1 [Compound 1.63, 2-amino-N,N-dipropyl-8-(N-(pyridin-3-yl)sulfamoyl)-3H-benzo[b]azepine-4-carboxamide]",500 to 1000
2,"CCCN(CCC)C(=O)C1=Cc2ccc(C(=O)Nc3ccc4c(c3)CCCC4=O)cc2N=C(N)C1 [Compound 1.5, 2-amino-N^8-(5-oxo-5,6,7,8-tetrahydronaphthalen-2-yl)-N^4,N^4-dipropyl-3H-benzo[b]azepine-4,8-dicarboxamide trifluoroacetate salt]",< 500
3,"CCCN(CCC)C(=O)C1=Cc2ccc(C(=O)Nc3cccc(C(C)=O)c3)cc2N=C(N)C1 [Compound 1.2, N^8-(3-acetylphenyl)-2-amino-N^4,N^4-dipropyl-3H-benzo[b]azepine-4,8-dicarboxamide]",< 500
4,"CCCN(CCC)C(=O)C1=Cc2ccc(C(=O)N[C@H](C)c3ccccc3)cc2N=C(N)C1 [Compound 1.22, (R)-2-amino-N^8-(1-phenylethyl)-N^4,N^4-dipropyl-3H-benzo[b]azepine-4,8-dicarboxamide trifluoroacetate salt]",< 500
5,"CCCN(CCC)C(=O)C1=Cc2ccc(C(=O)NCCNC(=O)OCc3ccccc3)cc2N=C(N)C1 [Compound 1.26, benzyl (2-(2-amino-4-(dipropylcarbamoyl)-3H-benzo[b]azepine-8-carboxamido)ethyl)carbamate trifluoroacetate salt]",< 500
6,"CCCN(CCC)C(=O)C1=Cc2ccc(C(=O)N[C@@H](C)c3ccccc3)cc2N=C(N)C1 [Compound 1.21, (S)-2-amino-N^8-(1-phenylethyl)-N^4,N^4-dipropyl-3H-benzo[b]azepine-4,8-dicarboxamide trifluoroacetate salt]",< 500
7,"CCCN(CCC)C(=O)C1=Cc2ccc(C(=O)Nc3ccc4c(c3)CCCN4)cc2N=C(N)C1 [Compound 1.12, 2-amino-N^4,N^4-dipropyl-N^8-(1,2,3,4-tetrahydroquinolin-6-yl)-3H-benzo[b]azepine-4,8-dicarboxamide trifluoroacetate salt]",< 500
8,"CCCN(CCC)C(=O)C1=Cc2ccc(C(=O)N3CCc4ccccc4C3)cc2N=C(N)C1 [Compound 1.24, 2-amino-N,N-dipropyl-8-(1,2,3,4-tetrahydroisoquinoline-2-carbonyl)-3H-benzo[b]azepine-4-carboxamide trifluoroacetate salt]",< 500
9,"CCCN(CCC)C(=O)C1=Cc2ccc(C(=O)Nc3ccc(C(C)=O)cc3)cc2N=C(N)C1 [Compound 1.25, N^8-(4-acetylphenyl)-2-amino-N^4,N^4-dipropyl-3H-benzo[b]azepine-4,8-dicarboxamide trifluoroacetate salt]",< 500
10,"CCCN(CCC)C(=O)C1=Cc2ccc(C(=O)NCC3OB(O)c4ccccc43)cc2N=C(N)C1 (stereo not shown) [Compound 1.47, 2-amino-N^8-((1-hydroxy-1,3-dihydro-benzo[c][1,2]oxaborol-3-yl)methyl)-N4,N4-dipropyl-3H-benzo[b]azepine-4,8-dicarboxamide]",500 to 1000
11,"CCCN(CCC)C(=O)C1=Cc2ccc(C(=O)Nc3ccc4c(c3)C(O)CCC4)cc2N=C(N)C1 (stereo not shown) [Compound 1.7, 2-amino-N^8-(8-hydroxy-5,6,7,8-tetrahydronaphthalen-2-yl)-N4,N4-dipropyl-3H-benzo[b]azepine-4,8-dicarboxamide trifluoroacetate salt]",< 500
12,"CCCN(CCC)C(=O)C1=Cc2ccc(C(=O)Nc3ccc4c(c3)C(=O)CCC4)cc2N=C(N)C1 [Compound 1.4, 2-amino-N^8-(8-oxo-5,6,7,8-tetrahydronaphthalen-2-yl)-N^4,N^4-dipropyl-3H-benzo[b]azepine-4,8-dicarboxamide trifluoroacetate salt]",< 500
13,"CCCN(CCC)C(=O)C1=Cc2ccc(C(=O)Nc3cncc(C4CCNC4)c3)cc2N=C(N)C1 (stereo not shown) [Compound 1.58, 2-amino-N^4,N^4-dipropyl-N^8-(5-(pyrrolidin-3-yl)pyridin-3-yl)-3H-benzo[b]azepine-4,8-dicarboxamide]",500 to 1000
14,"CCCN(CCC)C(=O)C1=Cc2ccc(C(=O)N[C@H]3C[C@@H]3c3ccccc3)cc2N=C(N)C1 [Compound 1.28, 2-amino-N^8-((1S,2R)-2-phenylcyclopropyl)-N^4,N^4-dipropyl-3H-benzo[b]azepine-4,8-dicarboxamide trifluoroacetate salt]",< 500
15,"CCCN(CCC)C(=O)C1=Cc2ccc(NC(=O)c3cccnc3)cc2N=C(N)C1 [Compound 1.62, 2-amino-8-(nicotinamido)-N,N-dipropyl-3H-benzo[b]azepine-4-carboxamide]",500 to 1000
16,"CCCN(CCC)C(=O)C1=Cc2ccc(C(=O)Nc3cncc(CNC(=O)C4CCc5ccccc5N4)c3)cc2N=C(N)C1 (stereo not shown) [Compound 1.33, 2-amino-N^4,N^4-dipropyl-N^8-(5-((1,2,3,4-tetrahydroquinoline-2-carboxamido)methyl)pyridin-yl)-3H-benzo[b]azepine-4,8-dicarboxamide]",< 500
17,"CCCN(CCC)C(=O)C1=Cc2ccc(C(=O)Nc3ccc(N4CCC(N)CC4)nc3)cc2N=C(N)C1 [Compound 1.57, 2-amino-N^8-(6-(4-aminopiperidin-1-yl)pyridin-3-yl)-N^4,N^4-dipropyl-3H-benzo[b]azepine-4,8-dicarboxamide tris HCl salt]",< 500
18,"CCCN(CCC)C(=O)C1=Cc2ccc(C(=O)Nc3cncc(CNC(=O)CC(N)c4ccccc4)c3)cc2N=C(N)C1 (stereo not shown) [Compound 1.38, 2-amino-N^8-(5-((3-amino-3-phenyl-propanamido)methyl)-pyridin-3-yl)-N^4,N^4-dipropyl-3H-benzo[b]azepine-4,8-dicarboxamide]",< 500
19,"CCCN(CCC)C(=O)C1=Cc2ccc(C(=O)Nc3cncc(CNC(=O)[C@@H](N)C(C)C)c3)cc2N=C(N)C1 [Compound 1.51, (S)-2-amino-N^8-(5-((2-amino-3-methylbutanamido)methyl)pyridin-3-yl)-N^4,N^4-dipropyl-3H-benzo[b]azepine-4,8-dicarboxamide]",1000 to 3000
20,"CCCN(CCC)C(=O)C1=Cc2ccc(C(=O)Nc3ccc4c(c3)CCN(C(=O)OCc3ccccc3)C4)cc2N=C(N)C1 [Compound 1.29, benzyl 6-(2-amino-4-(dipropylcarbamoyl)-3H-benzo[b]azepine-8-carboxamido)-3,4-dihydroisoquinoline-2(1H)-carboxylate]",< 500
21,"CCCN(CCC)C(=O)C1=Cc2ccc(C(=O)Nc3cncc(CNC(=O)[C@H](N)Cc4ccccc4)c3)cc2N=C(N)C1 [Compound 1.36, (R)-2-amino-N^8-(5-((2-amino-3-phenyl-propanamido)-methyl)pyridine-3-yl)-N^4,N^4-dipropyl-3H-benzo[b]azepine-4,8-dicarboxamide]",< 500
22,"CCCN(CCC)C(=O)C1=Cc2ccc(C(=O)NCC3OB(O)c4cc(NC(=O)OCc5ccccc5)ccc43)cc2N=C(N)C1 (stereo not shown) [Compound 1.49, benzyl (3-((2-amino-4-(dipropylcarbamoyl)-3H-benzo[b]azepine-8-carboxamido)methyl)-1-hydroxy-1,3-dihydrobenzo[c][1,2]oxaborol-6-yl)carbamate TFA salt]",500 to 1000
23,"CCCN(CCC)C(=O)C1=Cc2ccc(C(=O)NC3CCc4ccccc43)cc2N=C(N)C1 (stereo not shown) [Compound 1.23, 2-amino-N^8-(2,3-dihydro-1H-inden-1-yl)-N^4,N^4-dipropyl-3H-benzo[b]azepine-4,8-dicarboxamide trifluoroacetate salt]",< 500
24,"CCCN(CCC)C(=O)C1=Cc2ccc(C(=O)Nc3ccc(N4CCCC(N)C4)nc3)cc2N=C(N)C1 (stereo not shown) [Compound 1.56, 2-amino-N^8-(6-(3-aminopiperidin-1-yl)pyridin-3-yl)-N^4,N^4-dipropyl-3H-benzo[b]azepine-4,8-dicarboxamide]",1000 to 3000
25,"CCCN(CCC)C(=O)C1=Cc2ccc(C(=O)Nc3cnc4c(c3)CN(Cc3ccccc3)CC4)cc2N=C(N)C1 [Compound 1.48, 2-amino-N^8-(6-benzyl-5,6,7,8-tetrahydro-1,6-naphthyridin-3-yl)-N^4,N^4-dipropyl-3H-benzo[b]azepine-4,8-dicarboxamide]",< 500
26,"CCCN(CCC)C(=O)C1=Cc2ccc(C(=O)Nc3cnc4c(c3)CNCC4)cc2N=C(N)C1 [Compound 1.50, 2-amino-N^4,N^4-dipropyl-N^8-(5,6,7,8-tetrahydro-1,6-naphthyridin-3-yl)-3H-benzo[b]azepine-4,8-dicarboxamide]",< 500
27,"CCCN(CCC)C(=O)C1=Cc2ccc(C(=O)Nc3cnc4c(c3)C(N)CCC4)cc2N=C(N)C1 (stereo not shown) [Compound 1.39, 2-amino-N^8-(5-amino-5,6,7,8-tetrahydro-quinolin-3-yl)-N^4,N^4-dipropyl-3H-benzo-[b]azepine-4,8-dicarbox-amide]",< 500
28,"CCCN(CCC)C(=O)C1=Cc2ccc(C(=O)Nc3cncc(CNC(=O)NCc4ccccc4)c3)cc2N=C(N)C1 [Compound 1.32, 2-amino-N^8-(5-((3-benzylureido)methyl)pyridin-3-yl)-N^4,N^4-dipropyl-3H-benzo[b]azepine-4,8-dicarboxamide bis TFA salt]",< 500
